Literature values as cited in US20170119663A1, “NOVEL GASTRO-RETENTIVE DOSAGE FORMS” (Grünenthal GmbH, priority 2010, published 2017).
Where two headings read alike, the source gives them in different places.

Compound	oral bioavailability (dose in the range of 300-400 mg)	oral bioavailability (dose of 1600 mg) [%]	absorption window (small intestine and ascending colon)
NCC1(CC(=O)O)CCCCC1 [gabapentin]	approximately 60%	35	
CC(C)C[C@H](CN)CC(=O)O [pregabalin]			around six
